Results from patent US20240270821A1, “GIP/GLP1/GCG TRI-RECEPTOR AGONISTS AND USES THEREOF” (priority 2023, published 2024).
Like-named read-outs stand apart in the source and are kept apart here. Starred links: 1 amine or outer side, 2 acyl side, 3 side chain; linkers in the order of their positions; H or OH if unused. Non-standard residues stand in square brackets, D forms with d. Groups on a side chain read outwards from the residue. *: point of attachment. C20 diacid = O=C(O)CCCCCCCCCCCCCCCCCCC(=O)*; C18 diacid = O=C(O)CCCCCCCCCCCCCCCCC(=O)*; αMePhe(2-F) = C[C@](N)(Cc1ccccc1F)C(=O)O; γGlu = O=C(O)[C@H](CCC(=O)[*:2])N[*:1]; αMe4Pal = C[C@](N)(Cc1ccncc1)C(=O)O; αMeY = C[C@](N)(Cc1ccc(O)cc1)C(=O)O; αMeF = C[C@](N)(Cc1ccccc1)C(=O)O; 4Pal = N[C@@H](Cc1ccncc1)C(=O)O; αMeL = CC(C)C[C@](C)(N)C(=O)O; αMeS = C[C@](N)(CO)C(=O)O; Orn = NCCC[C@H](N)C(=O)O; AEEA = NCCOCCOCC(=O)O; Aib = CC(C)(N)C(=O)O

Experiments:
Type in all cases: cell-based
hGIPR [1] = biological target: T1, hGIPR (Homo sapiens, UniProt P48546); assay: Functional cAMP activity in the presence of 1% HSA; conditions: read-out: cAMP Rel EC50, hGIPR
T1 sequence (P48546 22-466): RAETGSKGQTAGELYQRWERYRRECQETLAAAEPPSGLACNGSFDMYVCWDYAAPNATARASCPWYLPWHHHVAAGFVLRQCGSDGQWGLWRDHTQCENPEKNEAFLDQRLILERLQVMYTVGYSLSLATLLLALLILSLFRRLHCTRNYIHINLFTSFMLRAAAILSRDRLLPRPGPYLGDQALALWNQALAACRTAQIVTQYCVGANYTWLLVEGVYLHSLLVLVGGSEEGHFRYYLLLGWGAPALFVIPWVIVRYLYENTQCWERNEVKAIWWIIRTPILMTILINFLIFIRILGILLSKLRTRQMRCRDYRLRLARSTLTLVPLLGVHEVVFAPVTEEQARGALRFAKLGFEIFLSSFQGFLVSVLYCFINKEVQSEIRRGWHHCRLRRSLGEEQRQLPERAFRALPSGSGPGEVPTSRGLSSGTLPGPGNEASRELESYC

hGLP-1R [2] = biological target: T2, hGLP-1R (Homo sapiens, UniProt P43220); assay: Functional cAMP activity in the presence of 1% HSA; conditions: read-out: cAMP Rel EC50, hGLP-1R
T2 sequence (P43220 24-463): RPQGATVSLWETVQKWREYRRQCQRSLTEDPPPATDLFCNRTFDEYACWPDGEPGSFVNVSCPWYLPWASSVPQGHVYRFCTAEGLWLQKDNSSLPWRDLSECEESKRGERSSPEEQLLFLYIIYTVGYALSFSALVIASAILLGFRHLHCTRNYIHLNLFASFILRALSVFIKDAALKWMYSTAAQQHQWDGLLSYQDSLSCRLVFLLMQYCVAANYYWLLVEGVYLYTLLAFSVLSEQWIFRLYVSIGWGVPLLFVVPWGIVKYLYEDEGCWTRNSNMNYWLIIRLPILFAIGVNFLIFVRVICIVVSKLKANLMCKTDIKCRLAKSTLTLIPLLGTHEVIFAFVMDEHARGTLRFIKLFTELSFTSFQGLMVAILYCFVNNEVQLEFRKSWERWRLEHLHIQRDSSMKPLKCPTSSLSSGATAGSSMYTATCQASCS

human GcgR = human GcgR (Homo sapiens, UniProt P47871); assay: Functional cAMP activity in the presence of 1% HSA; conditions: read-out: cAMP Rel EC50, hGcgR
human GcgR, sequence (P47871 26-477): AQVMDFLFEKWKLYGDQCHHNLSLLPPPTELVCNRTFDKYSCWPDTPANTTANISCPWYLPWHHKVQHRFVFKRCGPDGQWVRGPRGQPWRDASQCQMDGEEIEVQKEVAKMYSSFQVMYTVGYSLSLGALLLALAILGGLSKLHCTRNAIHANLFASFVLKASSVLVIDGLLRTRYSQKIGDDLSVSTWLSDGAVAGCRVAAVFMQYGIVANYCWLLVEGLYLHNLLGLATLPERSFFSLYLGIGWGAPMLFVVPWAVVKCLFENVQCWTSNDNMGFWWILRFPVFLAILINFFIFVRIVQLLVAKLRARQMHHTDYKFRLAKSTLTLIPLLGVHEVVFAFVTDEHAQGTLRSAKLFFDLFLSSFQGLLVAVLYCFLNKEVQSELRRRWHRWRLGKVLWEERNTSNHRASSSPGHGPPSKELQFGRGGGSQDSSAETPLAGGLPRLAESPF

hGIPR [3] = biological target: T1, hGIPR; assay: Functional cAMP activation in the presence of 0.1% casein (no HSA); conditions: read-out: Relative cAMP EC50, hGIPR;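 for Relative cAMP EC50, hGIPR: intracellular cAMP rise after 30 min at 37 °C read by HTRF against a standard curve, scaled between buffer alone (0%) and top control ligand concentration (100%), four-parameter fit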;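 for Relative cAMP EC50, hGLP-1R: intracellular cAMP rise after 30 min at 37 °C read by HTRF, normalized between buffer only (0%) and maximal control ligand (100%), four-parameter variable-slope fit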;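 for Relative cAMP EC50, hGcgR: intracellular cAMP rise after 30 min at 37 °C, read by HTRF against a cAMP standard curve, scaled from buffer only (0%) to maximal control ligand response (100%)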
hGLP-1R [4] = biological target: T2, hGLP-1R; assay: as above; conditions: read-out: Relative cAMP EC50, hGLP-1R
hGcgR = hGcgR (Homo sapiens, UniProt P47871); assay: as above; conditions: read-out: Relative cAMP EC50, hGcgR;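 note: intracellular cAMP rise after 30 min at 37 °C, read by HTRF against a cAMP standard curve, scaled from buffer only (0%) to maximal control ligand response (100%)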
hGcgR, sequence (P47871 26-477): as above

[5] = in the presence of 0.1% casein (no HSA), geometric mean
[6] = HEK-293 clonal cells expressing hGIPR, in the presence of 1% HSA, geometric mean of relative EC50
[7] = HEK-293 clonal cells expressing hGLP-1R, in the presence of 1% HSA, geometric mean of relative EC50
[8] = HEK-293 clonal cells expressing hGcgR, in the presence of 1% HSA, geometric mean of relative EC50
[9] = HEK-293 clonal cell line, 1% HSA, geometric mean of relative EC50
[10] = in the presence of 0.1% casein (no HSA), geometric mean of relative EC50

| Substance | EC50 (hGIPR [1]) | EC50 (hGLP-1R [2]) | EC50 (human GcgR) | EC50 (hGIPR [3]; [5]) | EC50 (hGLP-1R [4]; [5]) | EC50 (hGcgR; [5]) | also measured |
| --- | --- | --- | --- | --- | --- | --- | --- |
| H-Y[Aib]QGT[αMeF]TSD[4Pal][αMeS]I[αMeL]LD[Orn]K([γGlu-γGlu-C18 diacid])AQ[αMe4Pal]EFI[dE][αMeY]LIEGGPSSGAPPPSGE-NH2 [Example 1170] | 0.663 nM | 50.2 nM | 249 nM | 0.00783 nM | 0.395 nM | 2.43 nM |  |
| H-Y[Aib]QGT[αMeF]TSD[4Pal][αMeS]I[αMeL]LD[Orn]K([γGlu-γGlu-C18 diacid])AQ[αMe4Pal]EFI[dE][αMeY]LIEGGPSSGAPPPSGSE-NH2 [Example 1172] | 0.7 nM | 45.5 nM | 303 nM | 0.00886 nM | 0.44 nM | 2.52 nM |  |
| H-Y[Aib]QGT[αMePhe(2-F)]TSDYSILLDKK([AEEA-γGlu-C18 diacid])AQ[Aib]AFIEFLEEGGPSSGAPPPSEG-NH2 [Example 412] | 12.5 nM | 46 nM | 467 nM |  |  |  | EC50 (hGIPR [3]): 0.0351 nM; EC50 (hGLP-1R [4]): 0.282 nM; EC50 (hGcgR): 2.36 nM |
| H-Y[Aib]QGT[αMePhe(2-F)]TSDYSILLDKK([AEEA-γGlu-C18 diacid])AQ[Aib]AFIEYLEEGGPSSGAPPPEEG-NH2 [Example 399] | 19.6 nM | 42.8 nM | 560 nM |  |  |  | EC50 (hGIPR [3]): 0.0413 nM; EC50 (hGLP-1R [4]): 0.302 nM; EC50 (hGcgR): 1.51 nM |
| H-Y[Aib]QGT[αMePhe(2-F)]TSDYSILLDKK([AEEA-γGlu-C18 diacid])AQ[Aib]AFIE[4Pal]LEEGGPSSGAPPPSEG-NH2 [Example 411] | 23.8 nM | 82.1 nM | 1170 nM |  |  |  | EC50 (hGIPR [3]): 0.058 nM; EC50 (hGLP-1R [4]): 0.709 nM; EC50 (hGcgR): 3.94 nM |
| H-Y[Aib]QGT[αMePhe(2-F)]TSDYSILLDKK([γGlu-γGlu-C18 diacid])AQ[Aib]AFIEYLEEGGPSSGAPPPEEG-NH2 [Example 471] | 5.45 nM | 37.9 nM | 181 nM |  |  |  | EC50 (hGIPR [3]): 0.0296 nM; EC50 (hGLP-1R [4]): 0.317 nM; EC50 (hGcgR): 2.19 nM |
| H-Y[Aib]QGT[αMePhe(2-F)]TSDYSILLDKQAAK([AEEA-AEEA-γGlu-C20 diacid])EFIEYLIEGGPSSGEPPPSEG-NH2 [Example 348] | 36.4 nM | 136 nM | 1250 nM | 0.127 nM | 0.346 nM | 3.9 nM |  |
| H-Y[Aib]QGT[αMePhe(2-F)]TSDYSI[αMeL]LDKK([AEEA-AEEA-γGlu-C20 diacid])AA[Aib]AFIEYLIETGPSSGAPPPSEG-NH2 [Example 383] |  |  |  | 0.0406 nM | 0.258 nM | 1.27 nM | EC50 (hGIPR [1]; [6]): 32.3 nM; EC50 (hGLP-1R [2]; [7]): 79.1 nM; EC50 (human GcgR; [8]): 530 nM |
| H-Y[Aib]QGT[αMePhe(2-F)]TSDYSI[αMeL]LDKK([AEEA-γGlu-C18 diacid])AQ[Aib]AFIEYLLETGPSSGAPPPSEG-NH2 [Example 417] |  |  |  |  |  |  | EC50 (hGIPR [1]; [9]): 4.46 nM; EC50 (hGLP-1R [2]; [9]): 67 nM; EC50 (human GcgR; [9]): 386 nM; EC50 (hGIPR [3]; [10]): 0.0144 nM; EC50 (hGLP-1R [4]; [10]): 0.328 nM; EC50 (hGcgR; [10]): 2.83 nM |
| H-Y[Aib]QGT[αMePhe(2-F)]TSDYSI[αMeL]LD[Orn]K([AEEA-γGlu-C18 diacid])AQ[Aib]AFI[dE]YLLEGGPSSGAPPPSEG-NH2 [Example 404] | 2.03 nM | 32.2 nM | 735 nM |  |  |  | EC50 (hGIPR [3]): 0.0102 nM; EC50 (hGLP-1R [4]): 0.217 nM; EC50 (hGcgR): 4.1 nM |
| H-Y[Aib]QGT[αMePhe(2-F)]TSDYSKLLDEIAQK([AEEA-γGlu-C20 diacid])AFIEYLLEGGPSSGEPPPSEG-NH2 [Example 303] | 44.7 nM | 257 nM | 9950 nM | 0.116 nM | 1.13 nM | 6.1 nM |  |
| H-Y[Aib]QGT[αMePhe(2-F)]TSDYSKLLDKIAQK([AEEA-γGlu-C20 diacid])AFIEYLIEGGPSSGAPPPEGE-NH2 [Example 357] | 42.9 nM | 248 nM | 1810 nM | 0.077 nM | 0.625 nM | 6.21 nM |  |
| H-Y[Aib]QGT[αMePhe(2-F)]TSDYSKLLDKIAQK([AEEA-γGlu-C20 diacid])AFIEYLIEGGPSSGAPPPSGE-NH2 [Example 356] | 19.2 nM | 206 nM | 2680 nM | 0.0613 nM | 0.599 nM | 4.76 nM |  |
| H-Y[Aib]QGT[αMePhe(2-F)]TSDYSKLLDKIAQK([AEEA-γGlu-C20 diacid])[Orn]FIEWLIEGGPSSGEPPPSEG-NH2 [Example 310] | 15 nM | 177 nM | 4000 nM | 0.0939 nM | 0.586 nM | 3.52 nM |  |

The next lines start with results.

| EC50 (hGIPR [1]) | EC50 (hGLP-1R [2]) | EC50 (human GcgR) | EC50 (hGIPR [3]; [5]) | EC50 (hGLP-1R [4]; [5]) | EC50 (hGcgR; [5]) | Substance | also measured |
| --- | --- | --- | --- | --- | --- | --- | --- |
| 1.22 nM | 89.2 nM | 274 nM | 0.011 nM | 0.636 nM | 2.16 nM | H-Y[Aib]QGT[αMeF]TSD[4Pal][αMeS]I[αMeL]LD[Orn]K([AEEA-γGlu-C18 diacid])AQ[αMe4Pal]EFI[dE][αMeY]LIEGGPSSGEPPPSGSE-NH2 [Example 1167] |  |
| 0.718 nM | 52.9 nM | 233 nM | 0.00953 nM | 0.529 nM | 2.19 nM | H-Y[Aib]QGT[αMeF]TSD[4Pal][αMeS]I[αMeL]LD[Orn]K([γGlu-γGlu-C18 diacid])AQ[αMe4Pal]EFI[dE][αMeY]LIEGGPSSGEPPPSGE-NH2 [Example 1171] |  |
| 0.768 nM | 60.7 nM | 282 nM | 0.00962 nM | 0.572 nM | 2.08 nM | H-Y[Aib]QGT[αMeF]TSD[4Pal][αMeS]I[αMeL]LD[Orn]K([γGlu-γGlu-C18 diacid])AQ[αMe4Pal]EFI[dE][αMeY]LIEGGPSSGEPPPSGGGE-NH2 [Example 1175] |  |
| 0.764 nM | 59.1 nM | 254 nM | 0.00943 nM | 0.604 nM | 2.31 nM | H-Y[Aib]QGT[αMeF]TSD[4Pal][αMeS]I[αMeL]LD[Orn]K([γGlu-γGlu-C18 diacid])AQ[αMe4Pal]EFI[dE][αMeY]LIEGGPSSGEPPPSGSE-NH2 [Example 1173] |  |
| 28.3 nM | 514 nM | 4310 nM | 0.0738 nM | 1.17 nM | 15.6 nM | H-Y[Aib]QGT[αMePhe(2-F)]TSDFSILLDKQAQK([AEEA-AEEA-γGlu-C20 diacid])AFIEYLLEGGPSSGEPPPSEG-NH2 [Example 346] |  |
| 95.3 nM | 126 nM | 2820 nM | 0.142 nM | 0.335 nM | 5.8 nM | H-Y[Aib]QGT[αMePhe(2-F)]TSDYSILLDKAAQK([AEEA-γGlu-C20 diacid])[Orn]FIEYLIEGGPSSGEPPPSEG-NH2 [Example 306] |  |
| 15.3 nM | 256 nM | 3300 nM | 0.0377 nM | 0.658 nM | 11.3 nM | H-Y[Aib]QGT[αMePhe(2-F)]TSDYSILLDKQAQK([AEEA-AEEA-γGlu-C20 diacid])AFIEYLLEGGPSSGEPPPSEG-NH2 [Example 345] |  |
| 7.33 nM | 91.8 nM | 398 nM | 0.0783 nM | 0.63 nM | 3.91 nM | H-Y[Aib]QGT[αMePhe(2-F)]TSDYSKLLDKIAQK([AEEA-γGlu-C18 diacid])AFIEYLIEGGPSSGEPPPSEG-NH2 [Example 330] |  |
|  |  |  | 1.02 nM | 1.03 nM | 1.84 nM | H-Y[Aib]QGT[αMePhe(2-F)]TSDYSK[αMeL]LDKK([AEEA-γGlu-C18 diacid])AQ[Aib]QFIEYLEEGGPSSGEPPPSEG-NH2 [Example 292] | EC50 (hGIPR [1]; [6]): 92.7 nM; EC50 (hGLP-1R [2]; [7]): 129 nM; EC50 (human GcgR; [8]): 583 nM |
| 36.9 nM | 70 nM | 527 nM |  |  |  | H-Y[Aib]QGT[αMePhe(2-F)]TSDY[αMeS]I[αMeL]LD[Orn]K([AEEA-γGlu-C18 diacid])AQ[Aib][Orn]FI[dE][αMeY]LEEGGPSSGEPPPEEG-NH2 [Example 403] | EC50 (hGIPR [3]): 0.0827 nM; EC50 (hGLP-1R [4]): 0.396 nM; EC50 (hGcgR): 1.59 nM |
